# Results: ChEMBL document CHEMBL1909046, “DrugMatrix in vitro pharmacology data”
# Legend:
# [1] = biological target: Aldo-keto reductase family 1 member B1 (Rattus norvegicus, UniProt P07943); format: tissue-based, Lens of camera-type eye;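 note: inhibition of aldose reductase enzyme activity, measured with DL-glyceraldehyde as the substrate; in other assays of this panel Not Active means under 50% inhibition at 10 µM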
# [2] = biological target: 5-hydroxytryptamine receptor 2B (Homo sapiens, UniProt P41595); format: cell membranes, CHO-K1, Membrane; details: cho-k1; note: in other assays of this panel Not Active means under 50% inhibition at 10 µM
# [3] = biological target: T1, C-X-C chemokine receptor type 1 (Homo sapiens, UniProt P25024); note: in other assays of this panel Not Active means under 50% inhibition at 10 µM
# T1 sequence (P25024 whole entry): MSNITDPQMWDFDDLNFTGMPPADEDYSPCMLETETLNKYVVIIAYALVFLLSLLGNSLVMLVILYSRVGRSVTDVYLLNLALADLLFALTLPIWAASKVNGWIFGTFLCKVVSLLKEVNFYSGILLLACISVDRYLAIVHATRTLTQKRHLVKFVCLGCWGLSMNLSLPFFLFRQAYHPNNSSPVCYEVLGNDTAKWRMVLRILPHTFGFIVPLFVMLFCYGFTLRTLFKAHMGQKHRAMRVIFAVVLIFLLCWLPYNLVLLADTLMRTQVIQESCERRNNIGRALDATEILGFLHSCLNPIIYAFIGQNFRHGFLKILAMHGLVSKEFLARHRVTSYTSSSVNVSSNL
# [4] = DRUGMATRIX: Phosphodiesterase PDE4 enzyme inhibition (substrate: [3H]cAMP + cAMP); details: u-937, Not Active = under 50% inhibition at 10 µM
# [5] = biological target: Tyrosine-protein kinase Fyn (Homo sapiens, UniProt P06241); assay: biochemical; format: cell-based, Insect cells; details: insect cells;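 note: enzymatic inhibition of Fyn kinase activity measured with Poly(Glu:Tyr) as the phosphorylation substrate; in other assays of this panel Not Active means under 50% inhibition at 10 µM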
# Acetylcholinesterase = Acetylcholinesterase (Homo sapiens, UniProt P22303); assay: DRUGMATRIX: Acetylcholinesterase enzyme inhibition (substrate: acetylthiocholine); format: cell-based, HEK293; details: hek293; Not Active = under 50% inhibition at 10 µM
# Acetylcholinesterase, sequence (P22303 whole entry): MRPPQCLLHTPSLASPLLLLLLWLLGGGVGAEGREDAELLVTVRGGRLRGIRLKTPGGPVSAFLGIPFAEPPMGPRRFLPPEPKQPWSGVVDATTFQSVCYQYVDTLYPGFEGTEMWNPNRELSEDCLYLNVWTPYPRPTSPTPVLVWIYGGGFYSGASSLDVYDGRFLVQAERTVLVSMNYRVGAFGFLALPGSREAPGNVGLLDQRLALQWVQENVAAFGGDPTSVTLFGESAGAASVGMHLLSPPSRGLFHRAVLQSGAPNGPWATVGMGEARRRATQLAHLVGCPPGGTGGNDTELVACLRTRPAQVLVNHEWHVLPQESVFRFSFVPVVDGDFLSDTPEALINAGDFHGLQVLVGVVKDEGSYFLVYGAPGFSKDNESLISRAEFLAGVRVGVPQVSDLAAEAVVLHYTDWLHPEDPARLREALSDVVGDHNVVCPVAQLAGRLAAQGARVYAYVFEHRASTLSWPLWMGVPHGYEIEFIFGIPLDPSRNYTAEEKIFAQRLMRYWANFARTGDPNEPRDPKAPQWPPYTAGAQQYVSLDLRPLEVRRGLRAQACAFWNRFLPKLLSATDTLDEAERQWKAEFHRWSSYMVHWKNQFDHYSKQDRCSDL
# Tyrosine-protein kinase Fyn, sequence (P06241 whole entry): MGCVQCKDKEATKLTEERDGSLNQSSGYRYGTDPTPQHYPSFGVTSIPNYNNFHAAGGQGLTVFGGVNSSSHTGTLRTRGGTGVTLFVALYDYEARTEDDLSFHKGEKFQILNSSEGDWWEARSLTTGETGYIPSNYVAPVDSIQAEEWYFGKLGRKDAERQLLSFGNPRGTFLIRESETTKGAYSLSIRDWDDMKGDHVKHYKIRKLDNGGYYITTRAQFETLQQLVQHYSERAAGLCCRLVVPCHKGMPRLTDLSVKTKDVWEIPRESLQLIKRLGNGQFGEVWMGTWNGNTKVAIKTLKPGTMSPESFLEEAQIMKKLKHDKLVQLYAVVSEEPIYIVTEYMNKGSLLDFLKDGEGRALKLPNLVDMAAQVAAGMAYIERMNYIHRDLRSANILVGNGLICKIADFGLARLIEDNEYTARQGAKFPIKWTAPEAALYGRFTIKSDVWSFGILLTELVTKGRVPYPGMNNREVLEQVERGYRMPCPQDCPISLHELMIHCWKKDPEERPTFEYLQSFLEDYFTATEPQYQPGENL
# 5-hydroxytryptamine receptor 2B, sequence (P41595 whole entry): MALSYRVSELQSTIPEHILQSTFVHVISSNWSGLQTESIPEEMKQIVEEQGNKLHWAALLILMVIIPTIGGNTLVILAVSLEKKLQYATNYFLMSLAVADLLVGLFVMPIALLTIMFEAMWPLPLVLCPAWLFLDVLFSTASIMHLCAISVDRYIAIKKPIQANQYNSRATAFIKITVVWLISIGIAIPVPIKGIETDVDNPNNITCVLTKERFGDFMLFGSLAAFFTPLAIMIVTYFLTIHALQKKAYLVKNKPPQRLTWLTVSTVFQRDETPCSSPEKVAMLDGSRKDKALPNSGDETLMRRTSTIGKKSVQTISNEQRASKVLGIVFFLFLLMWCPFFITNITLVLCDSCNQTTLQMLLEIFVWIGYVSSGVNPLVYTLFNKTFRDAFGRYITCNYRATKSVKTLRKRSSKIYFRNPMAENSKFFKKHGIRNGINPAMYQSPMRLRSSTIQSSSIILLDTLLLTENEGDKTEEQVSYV
SMILES,IC50 [1],IC50 [2],IC50 [3],IC50 [4],Ki [4],IC50 [5],IC50 (Acetylcholinesterase),IC50 ([4]; read-out: IC50) [µM]
NC(=O)N1C(=O)/C(=C(\O)c2cccs2)c2cc(Cl)ccc21 [TENIDAP],Not Active,Not Active,Not Active,Not Active,Not Active,Not Active,Not Active,–
O=C1C(CC[S+]([O-])c2ccccc2)C(=O)N(c2ccccc2)N1c1ccccc1 (stereo not given) [SULFINPYRAZONE],Not Active,Not Active,Not Active,Not Active,Not Active,Not Active,Not Active,–
CO[C@H]1/C=C/O[C@@]2(C)Oc3c(C)c(O)c4c(O)c(c(/C=N/N5CCN(C6CCCC6)CC5)c(O)c4c3C2=O)NC(=O)/C(C)=C\C=C\[C@H](C)[C@H](O)[C@@H](C)[C@@H](O)[C@@H](C)[C@H](OC(C)=O)[C@@H]1C [RIFAPENTINE],Not Active,Not Active,Not Active,Not Active,Not Active,Not Active,Not Active,–
Cn1c(=O)c2nc[nH]c2n(C)c1=O.O [THEOPHYLLINE],Not Active,Not Active,Not Active,Not Active,Not Active,Not Active,Not Active,–
CCCCOc1cc(CC2CNC(=O)N2)ccc1OC (stereo not given) [RO-201724],Not Active,Not Active,Not Active,–,–,Not Active,Not Active,11.3
N#Cc1ccc(C(c2ccc(C#N)cc2)n2cncn2)cc1 [LETROZOLE],Not Active,Not Active,Not Active,Not Active,Not Active,Not Active,Not Active,–
CN(C/C=C/C#CC(C)(C)C)Cc1cccc2ccccc12 [TERBINAFINE],Not Active,Not Active,Not Active,Not Active,Not Active,Not Active,Not Active,–
O=C1Nc2ccc(Cl)cc2C(c2ccccc2Cl)=NC1O (stereo not given) [LORAZEPAM],Not Active,Not Active,Not Active,Not Active,Not Active,Not Active,Not Active,–
